Measurements as given in patent US8853203B2, “Diazepinone derivatives” (Novartis AG, priority 2012, dated 2014).

Experiments:
human mGluR5a receptors = human mGluR5a receptors (Homo sapiens (Human), UniProt P41594); assay: inhibition of glutamate-induced elevation of intracellular calcium in L(tk-) cells expressing human mGluR5a; type: cell-based; details: for IC50: glutamate-induced intracellular calcium elevation, L(tk-) cells expressing human mGluR5a, read-out: mGluR5 IC50; for inhibition at 2 µM: LTK, read-out: mGluR5 % inhibition at 2 μM
Method in brief: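 Compounds tested for inhibition of the glutamate-induced rise in intracellular calcium concentration in L(tk-) cells stably expressing human mGluR5a.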

human mGluR1 = human mGluR1 (Homo sapiens (Human), UniProt Q13255); assay: mGluR1 antagonism, L-glutamate induced intracellular calcium increase (FLIPR) in CHO cells stably expressing human mGluR1; type: cell-based; details: L-glutamate induced intracellular calcium, CHO cells expressing human mGluR1, FLIPR
Chain of human mGluR1 (Q13255 19-1194): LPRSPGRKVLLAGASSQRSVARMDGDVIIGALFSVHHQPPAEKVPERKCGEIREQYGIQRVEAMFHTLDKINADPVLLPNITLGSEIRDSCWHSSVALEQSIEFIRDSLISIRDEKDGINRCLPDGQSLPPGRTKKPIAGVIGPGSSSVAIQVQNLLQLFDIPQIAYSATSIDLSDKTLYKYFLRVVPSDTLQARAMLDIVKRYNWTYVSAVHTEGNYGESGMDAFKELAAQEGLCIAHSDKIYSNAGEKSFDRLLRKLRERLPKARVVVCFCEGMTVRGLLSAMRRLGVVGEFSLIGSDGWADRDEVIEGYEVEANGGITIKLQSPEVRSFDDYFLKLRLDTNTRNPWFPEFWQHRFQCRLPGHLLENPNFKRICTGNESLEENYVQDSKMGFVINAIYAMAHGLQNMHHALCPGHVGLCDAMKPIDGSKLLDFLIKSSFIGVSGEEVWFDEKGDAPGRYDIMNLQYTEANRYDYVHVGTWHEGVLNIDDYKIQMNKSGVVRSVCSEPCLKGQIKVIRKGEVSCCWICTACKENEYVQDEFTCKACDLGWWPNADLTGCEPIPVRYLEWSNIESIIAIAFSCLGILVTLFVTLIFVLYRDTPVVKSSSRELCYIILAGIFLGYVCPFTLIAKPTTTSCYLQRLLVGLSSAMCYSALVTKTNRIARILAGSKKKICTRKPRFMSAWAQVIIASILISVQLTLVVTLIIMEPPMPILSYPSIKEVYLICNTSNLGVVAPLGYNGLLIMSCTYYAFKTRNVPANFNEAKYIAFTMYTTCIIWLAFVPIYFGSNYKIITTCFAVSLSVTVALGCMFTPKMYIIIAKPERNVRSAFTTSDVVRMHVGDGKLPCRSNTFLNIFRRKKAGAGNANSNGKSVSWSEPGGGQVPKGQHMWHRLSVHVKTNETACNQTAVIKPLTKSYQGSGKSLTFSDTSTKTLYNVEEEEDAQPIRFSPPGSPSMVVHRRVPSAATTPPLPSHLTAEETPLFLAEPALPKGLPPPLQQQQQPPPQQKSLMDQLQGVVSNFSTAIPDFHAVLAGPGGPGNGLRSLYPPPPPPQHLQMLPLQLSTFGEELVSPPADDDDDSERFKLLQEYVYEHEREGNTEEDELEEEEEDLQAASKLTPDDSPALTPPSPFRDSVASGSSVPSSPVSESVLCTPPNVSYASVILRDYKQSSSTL

Chain of human mGluR5a receptors (P41594 other isoform, or with tags, fused parts or gaps): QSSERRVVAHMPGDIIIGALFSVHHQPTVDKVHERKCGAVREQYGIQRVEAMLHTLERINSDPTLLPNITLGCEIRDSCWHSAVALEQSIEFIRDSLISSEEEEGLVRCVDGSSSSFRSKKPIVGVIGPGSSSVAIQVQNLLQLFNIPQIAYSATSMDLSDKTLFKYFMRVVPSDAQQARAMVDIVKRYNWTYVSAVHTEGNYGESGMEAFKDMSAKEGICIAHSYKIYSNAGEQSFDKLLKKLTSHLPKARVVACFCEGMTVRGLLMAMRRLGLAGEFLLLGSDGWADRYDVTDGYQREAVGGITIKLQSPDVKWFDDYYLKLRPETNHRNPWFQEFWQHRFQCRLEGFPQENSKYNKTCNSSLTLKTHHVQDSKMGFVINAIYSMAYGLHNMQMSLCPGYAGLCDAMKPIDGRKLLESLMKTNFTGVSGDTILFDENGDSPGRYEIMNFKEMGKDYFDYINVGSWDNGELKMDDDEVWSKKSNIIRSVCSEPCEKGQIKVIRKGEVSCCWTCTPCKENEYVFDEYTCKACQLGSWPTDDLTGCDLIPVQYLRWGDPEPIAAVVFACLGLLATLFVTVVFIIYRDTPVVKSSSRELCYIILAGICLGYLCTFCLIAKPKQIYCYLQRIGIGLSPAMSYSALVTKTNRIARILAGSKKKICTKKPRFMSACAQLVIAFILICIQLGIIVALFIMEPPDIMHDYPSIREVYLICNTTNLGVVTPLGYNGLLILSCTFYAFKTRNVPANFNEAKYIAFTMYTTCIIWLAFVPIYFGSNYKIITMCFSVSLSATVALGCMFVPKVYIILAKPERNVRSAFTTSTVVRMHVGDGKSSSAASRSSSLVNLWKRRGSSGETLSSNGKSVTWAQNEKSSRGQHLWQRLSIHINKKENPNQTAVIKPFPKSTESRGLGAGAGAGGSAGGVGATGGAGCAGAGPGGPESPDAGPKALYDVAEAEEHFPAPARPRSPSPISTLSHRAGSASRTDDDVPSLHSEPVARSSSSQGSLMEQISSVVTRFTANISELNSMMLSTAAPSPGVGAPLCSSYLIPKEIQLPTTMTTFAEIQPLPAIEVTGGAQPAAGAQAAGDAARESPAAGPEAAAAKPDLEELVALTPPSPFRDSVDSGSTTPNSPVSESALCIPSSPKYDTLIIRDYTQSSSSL

Compound | IC50 (human mGluR5a receptors) [nM] | IC50 (human mGluR1) [nM] | inhibition at 2 µM (human mGluR5a receptors) [%]
O=C1CN=C(n2cnc(C3CC3)c2)C=C2c3cccc(-c4cnccn4)c3CCN12 [Example 88f, 2-(4-Cyclopropyl-1H-Imidazol-1-yl)-9-(pyrazin-2-yl)-7,8-dihydro-[1,4]diazepino[7,1-a]isoquinolin-5(4H)-one] | 100 | 1950 | 
O=C1CN=C(n2cnc(C3CC3)n2)C=C2c3cccc(-c4nccs4)c3CCN12 [Example 88g, 2-(3-cyclopropyl-1H-1,2,4-triazol-1-yl)-9-(thiazol-2-yl)-7,8-dihydro-[1,4]diazepino[7,1-a]isoquinolin-5(4H)-one] | 17 | 761 | 
COCCc1cn(C2=NCC(=O)N3CCc4c(cccc4-c4nccs4)C3=C2)cn1 [Example 88h, 2-(4-(2-methoxyethyl)-1H-imidazol-1-yl)-9-(thiazol-2-yl)-7,8-dihydro-[1,4]diazepino[7,1-a]isoquinolin-5(4H)-one] | 46 | 1050 | 
CCOCc1cn(C2=NCC(=O)N3CCc4c(cccc4-c4nccs4)C3=C2)cn1 [Example 88j, 2-(4-(ethoxymethyl)-1H-imidazol-1-yl)-9-(thiazol-2-yl)-7,8-dihydro-[1,4]diazepino[7,1-a]isoquinolin-5(4H)-one] | 56 | 1860 | 
O=C1CN=C(n2cnc(C3CC3)c2)C=C2c3cccc(-c4cnccc4F)c3CCN12 [Example 88k, 2-(4-cyclopropyl-1H-imidazol-1-yl)-9-(4-fluoropyridin-3-yl)-7,8-dihydro-[1,4]diazepino[7,1-a]isoquinolin-5(4H)-one] | 69 | 5860 | 
CCc1cccc2c1CCN1C(=O)CN=C(n3cnc(C(C)C)c3)C=C21 [Example 89, 9-ethyl-2-(4-isopropyl-1H-imidazol-1-yl)-7,8-dihydro-[1,4]diazepino[7,1-a]isoquinolin-5(4H)-one] | 28 | 650 | 
CCCc1cccc2c1CCN1C(=O)CN=C(n3cnc(C)c3)C=C21 [Example 90, 2-(4-methyl-1H-imidazol-1-yl)-9-propyl-7,8-dihydro-[1,4]diazepino[7,1-a]isoquinolin-5(4H)-one] | 10 | 1500 | 
COCc1cn(C2=NCC(=O)N3CCc4c(cccc4C4CCC4)C3=C2)cn1 [Example 91, 9-cyclobutyl-2-(4-(methoxymethyl)-1H-imidazol-1-yl)-7,8-dihydro-[1,4]diazepino[7,1-a]isoquinolin-5(4H)-one] | 9 | 220 | 
Cc1ncn(C2=NCC(=O)N3CCc4c(cccc4C4CCC4)C3=C2)n1 [Example 92, 9-cyclobutyl-2-(3-methyl-1H-1,2,4-triazol-1-yl)-7,8-dihydro-[1,4]diazepino[7,1-a]isoquinolin-5(4H)-one] | < 1 | 636 | 
COCc1ncn(C2=NCC(=O)N3CCc4c(cccc4C4CC4)C3=C2)n1 [Example 93, 9-cyclopropyl-2-(3-(methoxymethyl)-1H-1,2,4-triazol-1-yl)-7,8-dihydro-[1,4]diazepino[7,1-a]isoquinolin-5(4H)-one] | 3 | 1500 | 
CC(C)c1cn(C2=NCC(=O)N3CCc4c(-c5ccc(F)nc5)ccnc4C3=C2)cn1 [Example 94, 4-(6-fluoropyridin-3-yl)-11-(4-isopropyl-1H-imidazol-1-yl)-5,6-dihydro-[1,4]diazepino[1,7-h][1,7]naphthyridin-8(9H)-one] | 2700 | > 10000 | 
O=C1CN=C(n2cnc(C3CC3)c2)C=C2c3cccc(-c4ccc(F)nc4)c3CCN12 [Example 95-1, 2-(4-cyclopropyl-1H-imidazol-1-yl)-9-(6-fluoropyridin-3-yl)-7,8-dihydro-[1,4]diazepino[7,1-a]isoquinolin-5(4H)-one] | 20 | 10000 | 
O=C1CN=C(n2cnc(C3CC3)n2)C=C2c3cccc(-c4ccc(F)nc4)c3CCN12 [Example 95-2, 2-(3-cyclopropyl-1H-1,2,4-triazol-1-yl)-9-(6-fluoropyridin-3-yl)-7,8-dihydro-[1,4]diazepino[7,1-a]isoquinolin-5(4H)-one] | 11 | > 10000 | 
COCc1cn(C2=NCC(=O)N3CCc4c(cccc4C4CC4)C3=C2)cn1 [Example 96-1, 9-cyclopropyl-2-(4-(methoxymethyl)-1H-imidazol-1-yl)-7,8-dihydro-[1,4]diazepino[7,1-a]isoquinolin-5(4H)-one] | 6 | 540 | 
COCc1cn(C2=NCC(=O)N3CCc4c(ccc(F)c4C4CC4)C3=C2)cn1 [Example 96-2, 9-cyclopropyl-10-fluoro-2-(4-(methoxymethyl)-1H-imidazol-1-yl)-7,8-dihydro-[1,4]diazepino[7,1-a]isoquinolin-5(4H)-one] | 2 | 289 | 
O=C1CN=C(n2cnc(C3CC3)c2)C=C2c3cccc(-c4cccnc4F)c3CCN12 [Example 97, 2-(4-cyclopropyl-1H-imidazol-1-yl)-9-(2-fluoropyridin-3-yl)-7,8-dihydro-[1,4]diazepino[7,1-a]isoquinolin-5(4H)-one] | 37 | 5900 | 

Compound | IC50 (human mGluR5a receptors) [nM] | IC50 (human mGluR1) [nM] | inhibition at 2 µM (human mGluR5a receptors) [%]
O=C1CN=C(n2cnc(C3CCC3)c2)C=C2c3cccc(-c4cccnc4F)c3CCN12 [Example 98, 2-(4-cyclobutyl-1H-imidazol-1-yl)-9-(2-fluoropyridin-3-yl)-7,8-dihydro-[1,4]diazepino[7,1-a]isoquinolin-5(4H)-one] | 14 | 2400 | 
O=C1CN=C(n2cnc(C3CC3)c2)C=C2c3cccc(-c4ccc(F)nc4F)c3CCN12 [Example 99, 2-(4-cyclopropyl-1H-imidazol-1-yl)-9-(2,6-difluoropyridin-3-yl)-7,8-dihydro-[1,4]diazepino[7,1-a]isoquinolin-5(4H)-one] | 83 | > 2000 | 
Cc1cn(C2=NCC(=O)N3CCc4c(cccc4-c4cnc(C)o4)C3=C2)cn1 [Example 99a, 2-(4-methyl-1H-imidazol-1-yl)-9-(2-methyloxazol-5-yl)-7,8-dihydro-[1,4]diazepino[7,1-a]isoquinolin-5(4H)-one] | 77 | > 10000 | 
O=C1CN=C(n2cnc(C3CC3)c2)C=C2c3cccc(-c4cc(C(F)(F)F)n[nH]4)c3CCN12 [Example 99b, 2-(4-cyclopropyl-1H-imidazol-1-yl)-9-(3-(trifluoromethyl)-1H-pyrazol-5-yl)-7,8-dihydro-[1,4]diazepino[7,1-a]isoquinolin-5(4H)-one] |  | > 10000 | 41
O=C1CN=C(n2cnc(C3CC3)c2)C=C2c3cccc(-c4ccc(O)nc4)c3CCN12 [Example 99c, 2-(4-cyclopropyl-1H-imidazol-1-yl)-9-(6-hydroxypyridin-3-yl)-7,8-dihydro-[1,4]diazepino[7,1-a]isoquinolin-5(4H)-one] |  | > 10000 | 31
COc1ccc(-c2cccc3c2CCN2C(=O)CN=C(n4cnc(C5CC5)c4)C=C32)cn1 [Example 99d, 2-(4-cyclopropyl-1H-imidazol-1-yl)-9-(6-methoxypyridin-3-yl)-7,8-dihydro-[1,4]diazepino[7,1-a]isoquinolin-5(4H)-one] | 347 | > 2000 | 
O=C1CN=C(n2cnc(C3CC3)c2)C=C2c3cccc(-c4cc[nH]n4)c3CCN12 [Example 99e, 2-(4-cyclopropyl-1H-imidazol-1-yl)-9-(1H-pyrazol-3-yl)-7,8-dihydro-[1,4]diazepino[7,1-a]isoquinolin-5(4H)-one] | 127 | 8260 | 
O=C1CN=C(n2cnc(C3CC3)c2)C=C2c3cccc(-c4cnc(F)nc4)c3CCN12 [Example 99f, 2-(4-cyclopropyl-1H-imidazol-1-yl)-9-(2-fluoropyrimidin-5-yl)-7,8-dihydro-[1,4]diazepino[7,1-a]isoquinolin-5(4H)-one] | 102 | 12000 | 
O=C1CN=C(n2cnc(C3CC3)c2)C=C2c3cccc(-c4ccnc(F)c4)c3CCN12 [Example 99g, 2-(4-cyclopropyl-1H-imidazol-1-yl)-9-(2-fluoropyridin-4-yl)-7,8-dihydro-[1,4]diazepino[7,1-a]isoquinolin-5(4H)-one] | 220 | 18200 | 
COCc1cn(C2=NCC(=O)N3CCc4c(C5CC5)ccc(F)c4C3=C2)cn1 [Example 99i, 9-cyclopropyl-12-fluoro-2-(4-(methoxymethyl)-1H-imidazol-1-yl)-7,8-dihydro-[1,4]diazepino[7,1-a]isoquinolin-5(4H)-one] | 16 | 687 | 
CO[C@H](C)c1cn(C2=NCC(=O)N3CCc4c(C5CC5)ccc(F)c4C3=C2)cn1 [Example 99j, (R)-9-cyclopropyl-12-fluoro-2-(4-(1-methoxyethyl)-1H-imidazol-1-yl)-7,8-dihydro-[1,4]diazepino[7,1-a]isoquinolin-5(4H)-one] | 7 | 3210 | 
COCc1cn(C2=NCC(=O)N3CCc4c(cc(F)cc4C4CC4)C3=C2)cn1 [Example 99k, 9-cyclopropyl-11-fluoro-2-(4-(methoxymethyl)-1H-imidazol-1-yl)-7,8-dihydro-[1,4]diazepino[7,1-a]isoquinolin-5(4H)-one] | 3 | 561 | 
O=C1CN=C(n2cnc(C(F)F)c2)C=C2c3cccc(C4CC4)c3CCN12 [Example 99l, 9-cyclopropyl-2-(4-(difluoromethyl)-1H-imidazol-1-yl)-7,8-dihydro-[1,4]diazepino[7,1-a]isoquinolin-5(4H)-one] | 2 | 702 | 
O=C1CN=C(n2cnc(CF)c2)C=C2c3cccc(C4CC4)c3CCN12 [Example 99m, 9-cyclopropyl-2-(4-(fluoromethyl)-1H-imidazol-1-yl)-7,8-dihydro-[1,4]diazepino[7,1-a]isoquinolin-5(4H)-one] | 2 | 672 | 
CO[C@H](C)c1cn(C2=NCC(=O)N3CCc4c(ccc(F)c4C4CC4)C3=C2)cn1 [Example 99n, (R)-9-cyclopropyl-10-fluoro-2-(4-(1-methoxyethyl)-1H-imidazol-1-yl)-7,8-dihydro-[1,4]diazepino[7,1-a]isoquinolin-5(4H)-one] | 6 | 2080 | 
